The test concerns cancer cells. As to the kind of experiment: Tumor cell necrosis of cancer cells versus normal cells (general statement). Particulars: cancer cells vs normal cells; statement in the description, no data shown. Format: cell-based. The procedure:
PNC-27 or PNC-28 is incubated with 6×10^6 cancer cells, for example, Mia-PaCa-2 cells, for 5 days at concentrations ranging from 0.001-750 μM. At different timepoints following treatment the cells are assessed for signs of necrosis, for example, membrane blebbing and disruption and formation of cell clumps coalescing into aggregates of cellular debris. Percent cell death is determined by measuring trypan blue dye uptake. Cancer cells are also treated with the negative control peptide PNC-29 and, separately, a peptide having only the p53 derived portion of PNC-27 or PNC-28 that cannot traverse the cell membrane due to the lack of the MRP peptide, administered at the same concentration as the test peptide. The effect of these control peptides on cellular growth, morphology and viability is determined.
As an additional control, PNC-27 or PNC-28 is combined with untransformed BMRPA1 acinar cells and with the untransformed breast epithelial cell line, MCF-10-2A at a concentration ranging from 0.001-750 μM to determine if the peptide is lethal to normal cell growth.

On to “ETFSDLWKLLKKWKMRRNQFWVKVQRG [PNC-28, p53 aa17-26-MRP]”, for which the tumor cell necrosis entry was “induce tumor cell necrosis of cancer cells, but not normal cells”.
With “PPLSQETFSDLWKLLKKWKMRRNQFWVKVQRG [PNC-27]”, the tumor cell necrosis entry was “induce tumor cell necrosis of cancer cells, but not normal cells”.

For the origin of these results see patent publication US12239720B2, “Compositions for use in lysis of selective cancer cells” (ONCOLYZE, INC., priority 2018, dated 2025).
